Experimental data taken from patent US11691992B2 (Anacor Pharmaceuticals, Inc., priority 2017, dated 2023).
Where two headings read alike, the source gives them in different places.

Columns and labels:
Type in all cases: cell-based
[1] = test system: IL3000 T. congolense (drug sensitive) strain; test: In vitro Alamar Blue 72 h drug sensitivity assay for T. congolense; details: Trypanosoma congolense; read-out: inhibition of T. congolense IL-3000 growth at a concentration of 1.0 μM (classes D, E)
Method: Example 106. In Vitro Alamar Blue 72 h Drug Sensitivity Assay for T. congolense
Compounds were tested in vitro for chemotherapeutic potency against the IL3000 T. congolense (drug sensitive) strain, using the Alamar Blue assay with several modifications. Test compounds were prepared as 10 mg/mL DMSO stocks for each assay run. Compounds were assayed in at least three separate, independent test runs and an 11-point dilution curve was used to determine the IC50 values. Bloodstream form trypanosomes were supported in HMI media containing 20% bovine serum and were incubated with test compounds for 69 h at 34° C. in a humidified atmosphere containing 5% CO2. Thereafter, 10 μL of Resazurin dye (12.5 mg in 100 mL of phosphate buffered saline, Sigma-Aldrich, Buchs, Switzerland) were added for an additional 3 h. Plates were then read using a fluorescent plate reader (Spectramax, Gemini XS, Bucher Biotec, Basel, Switzerland) using an excitation wavelength of 536 nm and an emission wavelength of 588 nm. Data points were averaged to generate sigmoidal dose-response curves and IC50 values were determined using Softmax Pro 5.2 software.

[2] = test system: bloodstream forms of T. b. rhodesiense STIB 900; test: T. brucei rhodesiense STIB 900 growth inhibition assay; details: Trypanosoma brucei, bloodstream forms, 72 h, Alamar Blue, protocol of Example 110, read-out: IC50: I Org. Growth T. brucei rhodesiense STIB 900, 3 d
Description: Example 110. T. brucei rhodesiense STIB 900 Growth Inhibition Assay
The parasite strain used in this assay was isolated in 1982 from a human patient in Tanzania and after several mouse passages cloned and adapted to axenic culture conditions, ((a) Baltz, T., D. Baltz, C. Giroud, and J. Crockett. EMBO Journal, 1985, 4:1273-1277. (b) Thuita, J. K., S. M. Karanja, T. Wenzler, R. E. Mdachi, J. M. Ngotho, J. M. Kagira, R. Tidwell, and R. Brun. Acta Tropica 2008, 108:6-10.) Minimum Essential Medium (50 μl) supplemented with 25 mM HEPES, 1 g/l additional glucose, 1% MEM non-essential amino acids (100×), 0.2 mM 2-mercaptoethanol, 1 mM Na-pyruvate and 15% heat inactivated horse serum was added to each well of a 96-well microtiter plate. Serial drug dilutions of seven 3-fold dilution steps covering a range from 90 to 0.123 μg/ml were prepared. Then 10^4 bloodstream forms of T. b. rhodesiense STIB 900 in 50 μl was added to each well and the plate incubated at 37° C. under a 5% CO2 atmosphere for 72 h. 10 μl Alamar Blue (resazurin, 12.5 mg in 100 ml double-distilled water) was then added to each well and incubation continued for a further 2-4 h, (Raz, B., M. Iten, Y. Grether-Buhler, R. Kaminsky, and R. Brun. Acta Trap 1997, 68:139-47.) Then the plates were read with a Spectramax Gemini XS microplate fluorometer (Molecular Devices Cooperation, Sunnyvale, Calif., USA) using an excitation wave length of 536 nm and an emission wave length of 588 nm. Data were analyzed using the microplate reader software Softmax Pro (Molecular Devices Cooperation, Sunnyvale, Calif., USA).

[3] = test system: L. infantum MHOM/MA(BE)/67 amastigotes in primary peritoneal mouse macrophages; test: Leishmania infantum intracellular amastigote assay in mouse macrophages; details: Macrophage, 120 h, amastigotes in primary peritoneal mouse macrophages, 5 d, Giemsa staining, read-out: Inhibition of Organism Growth in Leishmania infantum MHOM/MA/BE/67, 5 d
Method: Example 111. Leishmania infantum Intracellular Amastigote Assay in Mouse Macrophages
L. infantum MHOM/MA(BE)/67 amastigotes were collected from the spleen of an infected donor hamster and used to infect primary peritoneal mouse macrophages. (Kaiser, M., Maes, L., Tadoori, L. P., Spangenberg, T., Ioset, J.-R. J. Biomol. Screen. 2015 20(5), 634-35.) To determine in vitro antileishmanial activity, 3×10^4 macrophages were seeded in each well of a 96-well plate. Culture medium was RPMI-1640 supplemented with L-glutamine (20 mM), 16.5 mM sodium hydrogen carbonate, and 10% fetal calf serum (FCS). After 2 d of outgrowth, 5×10^5 amastigotes/well were added and incubated for 2 h at 37° C. Prediluted samples to be tested were subsequently added, and the plates were further incubated for 5 d at 37° C. and 5% CO2. Total parasite burdens in the well were microscopically assessed after Giemsa staining and expressed as a percentage of the total burden in the blank controls without compound. In treated wells with high amastigote burdens, an overall estimate of the total burden per well was made without discrimination between the number of infected macrophages and the number of amastigotes per infected cell. In treated wells with low burdens, exact counting was performed. The 50% inhibitory concentrations (IC50s) were then generated for each dose response test using GraphPad Prism (GraphPad Software Inc., San Diego, Calif.) using the nonlinear regression (sigmoidal dose-response/variable slope) equation.

[4] = test system: promastigote forms of L. major; test: Leishmania major promastigote growth inhibition assay (Alamar Blue); details: promastigotes, 44 hours + 4 hours Alamar Blue, read-out: IC50: I Org. promastigote Growth L. major, 2 d
Description: Example 108. Leishmania major Promastigote Growth Inhibition Assay
The promastigote assay is a microtiter plate drug sensitivity prescreen assay used to determine antileishmanial activity of candidate drugs against promastigote forms of L. major. (Shadow et al., PLOS Neglected Tropical Diseases, 2009, e311.) Alamar Blue, or resazurin, is a non-fluorescent indicator dye that is converted to bright red-fluorescent resorufin via the activity of mitochondrial reductases. As the activity of mitochondrial reductases is reduced in cells that are dead or dying, and the intensity of the fluorescence is relative to cell number, a test compound that kills or inhibits growth of a particular target cell, such as L. major, will result in a lower production of fluorescent signal. Pre-dosed microtiter drug plates for use in the promastigote drug prescreen assay were produced using sterile 384-well black optical bottom tissue culture plates (Nunc Cat #12-565-344). Candidate drugs were diluted in dimethyl sulfoxide in four 96-well plates to either 10,000 ng/ml or 1,000 ng/ml, and 4.25 μL of diluted drug was subsequently dispensed into each well of a 384-well plate. Duplicate 384 well plates were made at each test concentration (10,000 ng/mL and 1,000 ng/mL) and amphotericin B was used as a batch control. The Tecan EVO Freedom liquid handling system (Tecan US, Inc., Durham, N.C.) was used to produce all drug assay plates and conduct all pipetting operations for this assay. L. major parasites were cultured in Schneider's medium (Lonza Cat #04-351Q) supplemented with 20% heat inactivated FBS (Invitrogen Cat #16140-089). Promastigotes in early log growth phase were harvested from culture, counted, suspended at 1.32×10^5 cells/mF and 5,000 promastigotes were dispensed into each well of the 384 well plate in a volume of 38.8 μL. The 384 well plates were subsequently incubated at 28° C. for 44 hours. 8.4 μF of Alamar Blue (Promega, Cat #G8081) was added to each well, the plates were subsequently incubated at 28° C. and 5% CO2 for 4 hours and then examined for the relative fluorescence units (RFU) per well using the Tecan Genios Plus (Tecan US, Inc., Durham, N.C.) with excitation set at 560 nm and emission set at 590 nm. The relative fluorescence from each well was used to determine the percent growth inhibition of each candidate compound tested. Compounds with 50% or greater inhibition of growth were selected for further analysis to determine IC50 values.

SMILES	IC50 [3] [nM]	inhibition at 1 µM [1] [%]	IC50 ([2]; RHODESIENSE|STIB900) [nM]	IC50 [4] [nM]	IC50 [2] [nM]
Cn1nc(C(=O)Nc2ccc3c(c2)B(O)OC3(C)C)nc1-c1ccccn1 [Example 79]	20000 to 100000	> 75	310 to 10000	–	–
CCn1nnc(C(=O)Nc2ccc3c(c2)B(O)OC3)c1C [Example 46, 1-ethyl-N-(1-hydroxy-1,3-dihydrobenzo[c][1,2]oxaborol-6-yl)-5-methyl-1H-1,2,3-triazole-4-carboxamide]	–	–	–	2510 to 20000	–
COc1cccc(-c2nc(C(=O)Nc3ccc4c(c3)B(O)OC4)nn2C)n1 [Example 75, N-(1-hydroxy-1,3-dihydrobenzo[c][1,2]oxaborol-6-yl)-5-(6-methoxypyridin-2-yl)-1-methyl-1H-1,2,4-triazole-3-carboxamide]	< 3000	> 75	–	–	< 100
O=C(Nc1ccc2c(c1)B(O)OC2)c1nnn(CC2CCC2)c1C(F)(F)F [Example 47, 1-(cyclobutylmethyl)-N-(1-hydroxy-1,3-dihydrobenzo[c][1,2]oxaborol-6-yl)-5-(trifluoromethyl)-1H-1,2,3-triazole-4-carboxamide]	–	–	–	< 600	–

Second part, led by results:

IC50 [3] [nM]	SMILES	inhibition at 1 µM [1] [%]	IC50 ([2]; RHODESIENSE|STIB900) [nM]	IC50 [4] [nM]	IC50 [2] [nM]
3000 to 19900	Cn1nc(C(=O)Nc2ccc3c(c2)B(O)OC3)nc1-c1ncccc1Cl [Example 76, 5-(3-Chloropyridin-2-yl)-N-(1-hydroxy-1,3-dihydrobenzo[c][1,2]oxaborol-6-yl)-1-methyl-1H-1,2,4-triazole-3-carboxamide]	> 75	–	–	100 to 300
3000 to 19900	Cn1nc(C(=O)Nc2ccc3c(c2)B(O)OC3)nc1-c1ccc(Cl)cn1 [Example 77, 5-(5-Chloropyridin-2-yl)-N-(1-hydroxy-1,3-dihydrobenzo[c][1,2]oxaborol-6-yl)-1-methyl-1H-1,2,4-triazole-3-carboxamide]	> 75	–	–	100 to 300
